Measurements as given in patent publication US6855728B2, “Small-molecule modulators of hepatocyte growth factor / scatter factor activities” (North Shore-Long Island Jewish Health System, priority 2001, dated 2005).

Experiments:
[1] = tested on: Endothelial cells (HUVECs); test: Endothelial cell (HUVEC) proliferation assay, 3H thymidine incorporation, compound without added growth factor; format: cell-based, human; conditions: for Activity at 2 microgram/ml Without HGF/SF: stimulation: stimulation of HUVEC proliferation; for Activity at 6 microgram/ml Without HGF/SF (result in words) / inhibition at 6 µg/mL: 6 microgram/ml; for Inhibition at 6-12 micrograms/ml Without HGF/SF: inhibition of endothelial cell proliferation
Procedure: Cell proliferation assays Endothelial cells (HUVECs) were seeded in 48 well plates at a density of 10,000 to 20,000 cells per well in the normal growth medium (EGM-2-Clonetics) containing 2% fetal bovine serum, FGF, VEGF, IGF, ascorbic acid, EGF, GA, heparin and hydrocortisone. The cells were grown normally in the growth medium for 24 hr at 37 degrees C. and 5% CO2. The cells were then rinsed with RPMI-1% BSA and starved for 1-2 hrs. The stock solutions of all the compounds were made at a concentration of 10 mg/ml in DMSO and diluted in RPMI-1% BSA at a final concentrations of 1 to 12 microgram/ml. The cells were then washed and treated with the compounds and incubated for another 24 hr at 37 degrees C. Then ^3H thymidine (0.5 microgram/ml in RPMI-BSA) was added to the cells and incubated at 37 degrees C. for 4 to 5 hours. The unincorporated thymidine was removed by washing the cells four times with 1× PBS. Then the cells were lysed with 0.5M NaOH for 30 min and the radioactivity counted in the beta counter. […]

[2] = tested on: HGF/SF induced proliferation of HUVEC; test: Endothelial cell (HUVEC) proliferation assay in the presence of exogenously-added HGF/SF; format: cell-based, human; conditions: with HGF/SF; for inhibition at 6 µg/mL / inhibition at 2 µg/mL: inhibition of HUVEC proliferation; for inhibition at 6 µg/mL: read-out: Activity at 6 microgram/ml With HGF/SF: inhibition (blocked SF); for Activity at 2 microgram/ml With HGF/SF (result in words) / inhibition at 2 µg/mL: 2 microgram/ml; for inhibition at 2 µg/mL: read-out: Activity at 2 microgram/ml With HGF/SF: inhibition (blocked SF)
Text: To evaluate inhibitors of activity, compounds may be evaluated directly for anti-proliferative activities, such as the inhibition of cellular proliferation, inhibition of tumor growth, inhibition of scatter, and inhibition of gene expression, and may also be evaluated on their ability to inhibit activity when exposed to cells together with. In such instances, the scatter and/or proliferative activities induced by added will be inhibited by the attendant presence of an inhibitory compound of the invention.
Cell proliferation assays Endothelial cells (HUVECs) were seeded in 48 well plates at a density of 10,000 to 20,000 cells per well in the normal growth medium (EGM-2-Clonetics) containing 2% fetal bovine serum, FGF, VEGF, IGF, ascorbic acid, EGF, GA, heparin and hydrocortisone. The cells were grown normally in the growth medium for 24 hr at 37 degrees C. and 5% CO2. The cells were then rinsed with RPMI-1% BSA and starved for 1-2 hrs. The stock solutions of all the compounds were made at a concentration of 10 mg/ml in DMSO and diluted in RPMI-1% BSA at a final concentrations of 1 to 12 microgram/ml. The cells were then washed and treated with the compounds and incubated for another 24 hr at 37 degrees C. Then ^3H thymidine (0.5 microgram/ml in RPMI-BSA) was added to the cells and incubated at 37 degrees C. for 4 to 5 hours. The unincorporated thymidine was removed by washing the cells four times with 1× PBS. Then the cells were lysed with 0.5M NaOH for 30 min and the radioactivity counted in the beta counter.

[3] = Homo sapiens, without HGF/SF, inhibition of HUVEC proliferation
[4] = without HGF/SF, stimulation of endothelial cell proliferation

SMILES | Activity at 2 microgram/ml Without HGF/SF (result in words) ([1]; 2 microgram/ml, without HGF/SF) | Activity at 6 microgram/ml Without HGF/SF (result in words) ([1]; without HGF/SF) | Activity at 2 microgram/ml With HGF/SF (result in words) [2] | inhibition at 6 µg/mL ([2]; Homo sapiens, 6 microgram/ml) [%] | inhibition at 2 µg/mL ([2]; Homo sapiens) [%] | other results
CCOC(CC(=O)NNC(=O)c1c(-c2c(Cl)cccc2Cl)noc1C)OCC [N′4-(3,3-diethoxypropanoyl)-3-(2,6-dichlorophenyl)-5-methylisoxazole-4-carbohydrazide] | No effect | No effect | No effect | 35 | – | –
Cc1onc(-c2c(Cl)cccc2Cl)c1C(=O)NNc1ccccc1 [N′4-phenyl-3-(2,6-dichlorophenyl)-5-methylisoxazole-4-carbohydrazide] | No effect | No effect | – | 80 | 40 | –
O=C(C=Cc1ccc(Br)cc1)c1ccccc1 [3-(4-Bromophenyl)-1-phenylprop-2-en-1-one] | – | – | – | – | – | Stimulation at 1 ug/ml Without HGF/SF ([1]; 1 ug/ml, without HGF/SF, stimulation of endothelial cell proliferation): 40-80% stimulation at 1; Stimulation/Inhibition at 6-12 micrograms/ml With (result in words) ([2]; 6-12 micrograms/ml): some additive effect
Cc1cc(C)cc(Sc2ccc3nnc(-c4ccccc4)n3n2)c1 [6-(3,5-Dimethylphenyl) Thio)-3-Phenyl (1,2,4-Triazolo(4,3-b)pyridazine] | – | – | – | – | – | Activity at 1 ug/ml concentration Without HGF/SF (result in words) ([1]; 1 ug/ml, without HGF/SF): no significant effect; inhibition at 1 µg/mL ([2]; Homo sapiens, HUVEC, 1 ug/ml, inhibition of endothelial cell proliferation, read-out: Activity at 1 ug/ml concentration With HGF/SF: inhibition): 30%
Cc1n[nH]c(C)c1Cc1c(F)cccc1Cl [4-(2-chloro-6-fluorobenzyl)-3,5-dimethyl-1H-pyrazole] | – | No effect | No effect | – | – | Activity at 2 microgram/ml Without HGF/SF: stimulation ([1]; 2 microgram/ml, without HGF/SF): 54%; Activity at 6 microgram/ml With HGF/SF (result in words) ([2]; 6 microgram/ml): No effect
COc1cc(CCC(=O)NNC(=O)c2c(-c3c(Cl)cccc3Cl)noc2C)cc(OC)c1OC [N′4-(3-(3,4,5-trimethoxyphenyl)propanoyl)-3-(2,6-dichlorophenyl)-5-methylisoxazole-4-carbohydrazide] | – | Cytotoxic | – | – | 50 | inhibition at 2 µg/mL ([1]; Homo sapiens, 2 microgram/ml, without HGF/SF, inhibition of HUVEC proliferation): 50%
Cc1nn(C(=O)c2c(Cl)cccc2Cl)c(C)c1Cc1c(F)cccc1Cl [(4-(2-chloro-6-fluorobenzyl)-3,5-dimethyl-1H-pyrazole-1-yl)(2,6-dichlorophenyl)methanone] | not significant | not significant | – | 90 | 23 | –
Cc1nn(S(=O)(=O)c2ccc(Cl)cc2)c(C)c1Cc1c(Cl)cccc1Cl [1-((4-chlorophenyl)sulfonyl)-4-(2,6-dichlorobenzyl)-3,5-dimethyl-1H-pyrazol] | No effect | No effect | No effect | 50 | – | –
Cc1nn(CCC#N)c(C)c1Cc1c(Cl)cccc1Cl [3-(4-(2,6-dichlorobenzyl)-3,5-dimethyl-1H-pyrazol-1-yl)propanenitrile] | No effect | – | – | 65 | 36 | inhibition at 6 µg/mL [1, 3]: 34%
C[Si](C)(C)c1cccc(-c2ccccc2)c1 [(3-Biphenyl) Trimethyl silane] | – | – | – | – | – | Stimulation at 6-12 micrograms/ml Without HGF/SF [1, 4]: 40% stimulation; Stimulation/Inhibition at 6-12 micrograms/ml With (result in words) ([2]; 6-12 micrograms/ml): No effect
Cc1onc(-c2c(Cl)cccc2Cl)c1C(=O)NN(C)c1ccc([N+](=O)[O-])cn1 [N′4,5-dimethyl-N′4-(5-nitro-2-pyridyl)-3-(2,6-dichlorophenyl)isoxazole-4-carbohydrazide] | No effect | No effect | No effect | 43 | – | –
Cc1onc(-c2c(Cl)cccc2Cl)c1C(=O)NNc1c(Cl)cncc1Cl [N′4-(3,5-dichloro-4-pyridyl)-3-(2,6-dichlorophenyl)-5-methylisoxazole-4-carbohydrazide] | No effect | No effect | – | 25 | 25 | –
Cc1nn(C(=O)c2ccc(Cl)cc2)c(C)c1Cc1c(F)cccc1Cl [(4-(2-chloro-6-fluorobenzyl)-3,5-dimethyl-1H-pyrazol-1-yl)(4-chlorophenyl)methanone] | – | – | – | 90 | 30 | Activity at 2 microgram/ml Without HGF/SF: stimulation ([1]; 2 microgram/ml, without HGF/SF): 40%; activation at 5 µg/mL ([1]; Homo sapiens, HUVEC, 24 h, 5 microg/ml, stimulation of endothelial cell proliferation): 41%; activation at 10 µg/mL ([1]; Homo sapiens, HUVEC, 24 h, 10 microg/ml, stimulation of endothelial cell proliferation): 35%; inhibition at 6 µg/mL [1, 3]: 50%
Cc1onc(-c2c(Cl)cccc2Cl)c1C(=O)NN1CCCCCC1 [N4-azepan-1-yl-3-(2,6-dichlorophenyl)-5-methylisoxazole-4-carboxamide] | No effect | – | No effect | 50 | – | inhibition at 6 µg/mL [1, 3]: 50%
c1ccc(-c2cc(-c3ccccc3)cc(-c3ccccc3)c2)cc1 [1,3,5-triphenylbenzene] | – | – | – | – | – | Stimulation at 6-12 micrograms/ml Without HGF/SF [1, 4]: 40-60% stimulation; Stimulation at 6-12 micrograms/ml With ([2]; 6-12 micrograms/ml, stimulation of endothelial cell proliferation): two fold stimulation
c1ccc(-c2sc(-c3ccccc3)c(-c3ccccc3)c2-c2ccccc2)cc1 [tetraphenylthiophene] | – | – | – | – | – | Inhibition at 6-12 micrograms/ml Without HGF/SF ([1]; without HGF/SF): 50% inhibition; Stimulation/Inhibition at 6-12 micrograms/ml With (result in words) ([2]; 6-12 micrograms/ml): No effect
Cc1onc(-c2c(Cl)cccc2Cl)c1C(=O)NNc1c(Cl)cccc1Cl [N′4,3-di(2,6-dichlorophenyl)-5-methylisoxazole-4-carbohydrazide] | No effect | – | not significant | 60 | – | inhibition at 6 µg/mL [1, 3]: 30%
C(=C1CCCc2c(-c3ccccc3)cc(-c3ccccc3)pc21)c1ccccc1 (stereo not shown) [8-Benzyledene-2,4 Diphenyl-5,6,7,8 Tetrahydrophosphinoline] | – | – | – | – | – | Activity at 1 ug/ml concentration Without HGF/SF (result in words) ([1]; 1 ug/ml, without HGF/SF): no significant effect; Activity at 1 ug/ml concentration With HGF/SF: inhibition ([2]; 1 ug/ml, inhibition of endothelial cell proliferation): 40% inhibition
Cc1onc(-c2c(Cl)cccc2Cl)c1C(=O)NNC(=S)Oc1ccccc1[N+](=O)[O-] [2-nitrophenyl 2-((3-(2,6-dichlorophenyl)-5-methylisoxazol-4-yl)carbonyl)hydrazine-1-carbothioate] | No effect | – | No effect | 80 | – | inhibition at 6 µg/mL [1, 3]: 80%
Cc1ccc(N=Cc2ccco2)c(C)c1 [N-(furfurylidene)-2,4-xylidine] | – | – | – | – | – | Inhibition at 6-12 micrograms/ml Without HGF/SF ([1]; without HGF/SF): 30-40% inhibition; Inhibition at 6-12 micrograms/ml With ([2]; 6-12 micrograms/ml, inhibition of endothelial cell proliferation): 50-60% inhibition
